{"source": "patent US9067914B1", "about": "“Tropomyosin-related kinase (TRK) inhibitors” (Genzyme Corporation, priority 2013, dated 2015)", "key": {"TrkA": {"molecular_target": "TrkA (Homo sapiens (Human), UniProt P04629)", "sequence (P04629 33-796)": "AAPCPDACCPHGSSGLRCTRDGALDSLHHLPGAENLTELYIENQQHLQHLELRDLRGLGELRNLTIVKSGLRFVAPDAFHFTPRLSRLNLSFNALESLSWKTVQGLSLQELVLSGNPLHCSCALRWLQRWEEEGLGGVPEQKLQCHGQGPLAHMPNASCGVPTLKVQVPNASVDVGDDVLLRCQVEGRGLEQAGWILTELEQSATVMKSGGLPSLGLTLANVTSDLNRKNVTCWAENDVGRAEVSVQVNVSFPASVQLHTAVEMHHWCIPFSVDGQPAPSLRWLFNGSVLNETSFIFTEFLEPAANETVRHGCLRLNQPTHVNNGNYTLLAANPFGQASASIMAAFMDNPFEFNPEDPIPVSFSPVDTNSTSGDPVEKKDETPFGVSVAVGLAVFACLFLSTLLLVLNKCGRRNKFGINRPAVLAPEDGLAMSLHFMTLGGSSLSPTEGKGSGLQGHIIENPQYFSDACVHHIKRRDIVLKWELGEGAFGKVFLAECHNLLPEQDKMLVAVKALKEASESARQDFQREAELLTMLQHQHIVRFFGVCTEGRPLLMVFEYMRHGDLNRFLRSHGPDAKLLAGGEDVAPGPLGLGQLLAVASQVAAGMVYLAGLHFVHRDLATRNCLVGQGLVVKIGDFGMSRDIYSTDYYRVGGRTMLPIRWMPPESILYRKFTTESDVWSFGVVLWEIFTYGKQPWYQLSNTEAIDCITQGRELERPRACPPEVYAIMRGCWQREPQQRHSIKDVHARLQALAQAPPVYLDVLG", "test": "TrkA activity, off-chip mobility shift assay (LabChip 3000)", "assay_type": "biochemical", "conditions": "55 μM ATP (ATP Km); n/d = none detected"}, "[1]": {"test_system": "PGPS knee arthritis in male Lewis rats", "test": "Reactivated peptidoglycan-polysaccharide (PGPS) knee arthritis", "assay_type": "in vivo, rat", "conditions": "for Gait scores and deficiency, first reactivation / Gait scores and deficiency, second reactivation: significant reduction: male Lewis rats; for Gait scores and deficiency, first reactivation: days 1-4; for Gait scores and deficiency, second reactivation: significant reduction: days 14-18", "source_text": "Male Lewis rats were acclimated to the testing facility for 7 days. The rats were housed in 5 per cage in shoe-box polycarbonate cages with wire tops, wood chip bedding and suspended food and water bottles.\nOn day −21, the male Lewis rats were randomized into treatment groups by body weight. The rats were anesthetized and injected with peptidoglycan-polysaccharide (PGPS) into the right knee to induce PGPS arthritis. Arthritis was reactivated on days 0 and 14 by an IV tail injection of PGPS.\nThe rats were weighed at baseline on days 0, 4, 14 and 18. Knee thickness was measured by caliper at baseline and on days 0, 2, 4, 14, 16 and 18. Gait analysis occurred on days 0-4 and 14-18, with video recording of selected animals on days 3 and 17. Gait analysis was performed by applying ink to the ventral surface of the foot and documenting weight bearing during movement across paper.\nThe animals were terminated at day 18. Right knees were removed, trimmed of extraneous tissue, and collected into 10% neutral buffered formalin. After two days in the formalin buffer and three days in 10% formic acid decalcifier, the knees were cut into two approximately equal halves in the frontal plane and processed for paraffin embedding and stained with T.Blue. Histological examinations were subsequently performed for bone resorption, inflammation, pannus and cartilage damage.\nBody weights, gait deficiency and caliper measurements were analyzed using a one-way analysis of variance (1-way ANOVA) with Dunnett's multiple comparison post-test. Gait scores were analyzed using a Kruskal-Wallis test (non-parametric ANOVA) with Dunn's multiple comparison post-test. Histopathology scores were analyzed using a Kruskal-Wallis test (non-parametric ANOVA) with Dunn's multiple comparison post-test."}, "[2]": {"test_system": "MIA induced osteoarthritis in male Wistar rats", "test": "Monosodium iodoacetate (MIA) induced osteoarthritis, weight bearing", "assay_type": "in vivo, rat", "source_text": "Male Wistar rats were acclimated to the testing facility for 5 days. The rats were individually housed in micro-isolator shoe-box polycarbonate cages with cob bedding and water bottles. Dry pelleted food of known composition and nutritional components was provided ad libitum\nAnimals were randomized by treatment type using an online random number generator. Each treatment group was assigned a number, entered into the random number generator, recorded then translated back to the associated treatment. All injections were given in the left leg unless the treatment indicated “Contralateral” in which case the injection was given in the right leg. Both legs were shaved on all animals at the time of the treatment injections to blind the test administrator.\nThe rats were weighed the day prior to injection with monosodium iodoacetate (MIA), the agent used to induce osteoarthritis in the animals. The day of injection, rats from groups 2-8 received a subcutaneous (SC) dose of buprenorphine at least one hour prior to induction. […] Naïve animals were then placed in recovery. All other animals received an injection of MIA. In animals receiving MIA, the hind leg was flexed and an injection of MIA (25 μL) was injected into the intra-articular space using a 27 gauge ½ inch needle. Standard postoperative care was performed (twice daily for 48 hours).\nOn Day 8 the test article was administered as described above. On Days −1, 7, 14, 21, 28, and 35 post-induction, weight bearing was assessed. A weight bearing scale was utilized using a plexiglass chamber to assess the amount of weight distributed in each hind limb. The animals were acclimated to the chamber for at least 5 minutes prior to testing and the weight distribution was recorded 5 times.\nThe animals were terminated at day 36. Both stifles were collected from each animal; the skin was removed from the joint and the patella was removed while leaving as much of the fat pad intact with the joint. The stifle was placed in the appropriate cassette with rolled gauze to secure the stifle in the cassette and then placed into 4% Paraformaldehyde. These samples were examined histologically."}, "TrkB": {"molecular_target": "TrkB (Homo sapiens (Human), UniProt Q16620)", "sequence (Q16620 32-822)": "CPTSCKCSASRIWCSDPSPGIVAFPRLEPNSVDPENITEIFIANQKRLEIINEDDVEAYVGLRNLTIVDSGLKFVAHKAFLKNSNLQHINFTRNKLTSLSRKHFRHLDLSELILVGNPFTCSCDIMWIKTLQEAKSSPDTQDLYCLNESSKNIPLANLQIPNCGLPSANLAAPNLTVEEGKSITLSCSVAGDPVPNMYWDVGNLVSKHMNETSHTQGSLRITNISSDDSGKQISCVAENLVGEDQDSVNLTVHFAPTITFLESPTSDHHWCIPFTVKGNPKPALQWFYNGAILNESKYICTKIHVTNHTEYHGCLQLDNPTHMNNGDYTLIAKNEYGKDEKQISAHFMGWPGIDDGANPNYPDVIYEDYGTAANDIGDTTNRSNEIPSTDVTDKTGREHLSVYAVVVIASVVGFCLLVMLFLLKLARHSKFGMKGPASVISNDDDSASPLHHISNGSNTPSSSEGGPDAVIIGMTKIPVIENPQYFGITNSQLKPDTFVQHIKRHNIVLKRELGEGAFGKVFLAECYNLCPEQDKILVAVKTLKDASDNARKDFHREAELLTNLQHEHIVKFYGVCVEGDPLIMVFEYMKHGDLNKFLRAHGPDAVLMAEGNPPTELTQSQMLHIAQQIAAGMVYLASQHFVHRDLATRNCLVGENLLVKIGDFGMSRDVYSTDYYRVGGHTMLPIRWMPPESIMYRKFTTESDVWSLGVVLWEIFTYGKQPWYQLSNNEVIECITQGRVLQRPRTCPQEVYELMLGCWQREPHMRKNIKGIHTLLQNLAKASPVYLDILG", "test": "TrkB activity, off-chip mobility shift assay (LabChip 3000)", "assay_type": "biochemical", "conditions": "70 μM ATP (ATP Km); n/d = none detected"}, "[3]": {"conditions": "intra-articular on day -7 (Triamcinolone 0.06 mg; test compound 1 mg)"}, "[4]": {"conditions": "intra-articular on day -7, 1 mg"}, "[5]": {"conditions": "right knee, day 18, intra-articular on day -7 (Triamcinolone 0.06 mg; test compound 1 mg)"}}, "data": [{"smiles": "COc1ccc(COc2ccc(Cn3c(N)nc4cc(-c5cnn(C)c5)cnc43)cc2OC)cc1", "note": "[Ex. 3-15, 3-(3-Methoxy-4-((4-methoxybenzyl)oxy)benzyl)-6-(1-methyl-1H-pyrazol-4-yl)-3H-imidazo[4,5-b]pyridin-2-amine]", "values": [{"measurement": "IC50", "setting": "TrkA", "value": 0.3, "unit": "nM"}, {"measurement": "Knee caliper measurements", "setting": "[1]; [3]", "value": "significantly reduced on day 14"}, {"measurement": "Reduction of knee caliper AUC", "setting": "[1]; [3]", "value": "generally unaffected"}, {"measurement": "Reduction of gait scores and deficiency AUC, first reactivation", "setting": "[1]; [4]", "value": "92-93%"}, {"measurement": "Reduction of gait scores and deficiency AUC, second reactivation", "setting": "[1]; [4]", "value": "85-86%"}, {"measurement": "Reduction of summed AUC for gait deficiency", "setting": "[1]; [4]", "value": 84, "unit": "%"}, {"measurement": "Gait scores and deficiency, first reactivation", "setting": "[1]; [3]", "value": "significant reductions"}, {"measurement": "Gait scores and deficiency, second reactivation: significant reduction", "setting": "[1]; [3]", "value": "Scores were significantly reduced throughout the second reactivation, and reductions in deficiency were significant on days 15, 17, and 18"}, {"measurement": "Histopathology: reduction in summed scores", "setting": "[1]; [5]", "value": 70, "unit": "%"}, {"measurement": "Histopathology: reductions in all parameters (bone resorption, inflammation, pannus, cartilage damage)", "setting": "[1]; [5]", "value": "49-94%"}, {"measurement": "Efficacy (weight bearing)", "setting": "[2]; 10 μg Contralateral injection on Day 8", "value": "efficacy at 3 and 4 weeks following administration"}, {"measurement": "Efficacy (weight bearing)", "setting": "[2]; 10 μg Ipsilateral injection on Day 8", "value": "efficacy was observed at 2 through 4 weeks following administration"}, {"measurement": "Efficacy (weight bearing)", "setting": "[2]; 30 μg Contralateral injection on Day 8", "value": "efficacy at only the 3 week timepoint"}, {"measurement": "Efficacy (weight bearing)", "setting": "[2]; 30 μg Ipsilateral injection on Day 8", "value": "effective throughout the four weeks following administration"}, {"measurement": "Systemic pain relief (weight bearing)", "setting": "[2]; 100 μg Contralateral injection on Day 8, 1-4 weeks", "value": "did not show systemic pain relief at any timepoint"}, {"measurement": "Efficacy (weight bearing)", "setting": "[2]; 100 μg Ipsilateral injection on Day 8", "value": "effective throughout the four weeks following administration"}, {"measurement": "Comparison with MIA/LRS at day 35 (p<0.05)", "setting": "[2]; Ipsilateral 30 μg", "value": "MIA/LRS was significantly worse"}, {"measurement": "Comparison with MIA/LRS at day 35 (p<0.05)", "setting": "[2]; Ipsilateral 100 μg", "value": "MIA/LRS was significantly worse"}, {"measurement": "Body weight results", "setting": "[2]; male Wistar rats, intra-articular on Day 8", "value": "No adverse observations"}, {"measurement": "Histopathology of the knee joint", "setting": "[2]; stifles collected at day 36", "value": "no adverse changes"}, {"measurement": "IC50", "setting": "TrkB", "value": 0.1, "unit": "nM"}]}, {"smiles": "C[C@]12C=CC(=O)C=C1CC[C@H]1[C@@H]3C[C@@H](O)[C@](O)(C(=O)CO)[C@@]3(C)C[C@H](O)[C@@]12F", "note": "[Triamcinolone, reference compound]", "values": [{"measurement": "Knee caliper measurements", "setting": "[1]; [3]", "value": "significantly reduced on days 2, 4, 16, and 18, as well as prior to the first reactivation on day 0"}, {"measurement": "Reduction of knee caliper AUC", "setting": "[1]; [3]", "value": "53-106%"}, {"measurement": "Gait scores and deficiency, first reactivation", "setting": "[1]; [3]", "value": "significantly reduced"}, {"measurement": "Gait scores and deficiency, second reactivation: significant reduction", "setting": "[1]; [3]", "value": "on day 15, 17, and 18"}, {"measurement": "Histopathology: reduction in summed scores", "setting": "[1]; [5]", "value": 74, "unit": "%"}]}]}
